≈ marks a conversion by molar mass, not a printed value. Where “and” joins values, the source holds several entries; their conditions need not be identical. Identical values can stand only once. Entries after “also recorded” stand apart in the source; their conditions may differ. Like-named read-outs stand apart in the source and are kept apart here.

For data set [1], the target named is nSMase. Also noted: method as in PMID 21615386, PMID 17049336. Particulars: cited from earlier work; for IC50: Enzyme source: Rat brain.
Data set [2] addresses T1, human nSMase2 (Homo sapiens, UniProt Q9NY59).
T1 sequence (Q9NY59 1-655): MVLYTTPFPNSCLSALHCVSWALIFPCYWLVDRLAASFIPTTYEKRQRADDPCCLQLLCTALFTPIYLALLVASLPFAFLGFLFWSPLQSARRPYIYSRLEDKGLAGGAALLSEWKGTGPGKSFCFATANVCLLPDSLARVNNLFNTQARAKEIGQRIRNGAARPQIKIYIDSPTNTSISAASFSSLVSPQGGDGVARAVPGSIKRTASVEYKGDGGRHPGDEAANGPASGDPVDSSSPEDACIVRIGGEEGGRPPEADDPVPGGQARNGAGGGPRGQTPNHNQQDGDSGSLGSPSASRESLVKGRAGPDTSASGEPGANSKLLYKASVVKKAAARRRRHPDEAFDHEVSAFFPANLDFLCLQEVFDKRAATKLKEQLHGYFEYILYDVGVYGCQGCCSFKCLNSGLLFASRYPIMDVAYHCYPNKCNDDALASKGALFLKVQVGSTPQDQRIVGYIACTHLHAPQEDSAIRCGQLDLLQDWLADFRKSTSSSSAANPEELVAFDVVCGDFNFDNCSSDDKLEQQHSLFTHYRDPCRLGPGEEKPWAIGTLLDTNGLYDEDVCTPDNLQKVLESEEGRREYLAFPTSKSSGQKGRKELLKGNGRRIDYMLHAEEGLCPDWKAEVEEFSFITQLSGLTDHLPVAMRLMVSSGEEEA
Put plainly: Fluorescence (Amplex red coupled) nSMase2 activity assay. As to conditions: for inhibition of human nSMase2 activity: 150 μM GW4869, 100 μM manumycin A, altenusin, zoledronic acid; for block of human nSMase2 activity: even at 100 μM. The data set is classed as biochemical. Set-up: Full length human nSMase2 cDNA with a C-terminal Flag tag; crude cell lysate used as enzyme. The protocol: The production of the latter was coupled to a dephosphorylation reaction catalyzed by alkaline phosphatase (4 U/ml) to produce choline, followed by oxidation of choline by choline oxidase (0.1 U/ml) to produce betaine and H2O2, which in the presence of horseradish peroxidase (HRP, 1U/ml) and 50 μM Amplex red, generates the fluorescent molecule resorufin (Life Technologies). Substrate stock solution was prepared in 2% Triton X-100, vortexed and sonicated for 30 min. Reactions were carried out for 1 h at 37°C in 100 mM Tris-HCl pH 7.4, 10 mM MgCl2, 0.2% Triton X-100 and the generation of the fluorescent product was monitored by measuring relative florescence units (RFU) with excitation at 530 nm and emission at 590 nm (Fig 1). This assay was optimized for 384-well format (50 μl total volume per well) based on linearity of the enzymatic activity with respect to time, as well as substrate and enzyme concentrations. […] This fluorescence assay was used for compound screening and IC50 value determinations, based on duplicate eight-point dose response curves.

The target of data set [3] is nSMase. Set-up: method as in PMID 21615386, PMID 17049336. Particulars: Enzyme source: Mouse brain; cited from earlier work.
Data set [4] relates to rat primary hippocampal neurons. Kind of data set: Hippocampal neuronal survival (Hoechst 33342). The format is cell-based. The protocol:
All animal procedures were approved by the Johns Hopkins University Animal Care and Use Committee. Primary hippocampal neurons were prepared from day 18 decapitated embryos of Sprague-Dawley rats following previously described methods. Cells were seeded on polyethyleneimine (PEI)-coated slides in 12-well plates and cultured between 14–21 days. […] After 18 h, cells were stained with 50 μg/ml Hoeschst 33342 for 20 min and then fixed with 4% paraformaldehyde for 30 min. The number of living and apoptotic cells was determined by fluorescence microscopy. A minimum of 500 cells were counted per treatment condition. Results were normalized to control untreated cells and were representative of at least two independent experiments conducted in triplicate. Statistical evaluation of the data was done by Student’s t-test.

In data set [5] the test system is SIRT1. As to conditions: cited from earlier work.
The subject of data set [6] is SIRT2. Particulars: cited from earlier work.
A short description of data set [7]: Solubility. The format is physicochemical. Particulars: cambinol compared to GW4869.
For data set [8] the following is noted: in DMSO; cited from earlier work.
The subject of data set [9] is nSMase. Also noted: method as in PMID 21615386, PMID 17049336. Particulars: cited from earlier work.
For data set [10], the target named is T1, human nSMase2. Put plainly: 14C-SM confirmatory direct activity assay. The format is biochemical. Set-up: Full length human nSMase2 cDNA with a C-terminal Flag tag; host or cells: HEK293, stably transfected; crude cell lysate used as enzyme. The procedure:
This assay was dependent on the direct hydrolysis of ^14C-labeled SM (^14C N-methyl groups in the phosphorylcholine) by human nSMase2. Optimization of assay conditions was accomplished according to the methods of Barbone et al.. Briefly, bovine [N-methyl-^14C]-sphingomyelin (specific activity […], Perkin Elmer) and phosphatidylinositol (Avanti Polar Lipids) were evaporated to dryness under a stream of nitrogen and resuspended at an equimolar concentration of 0.1 mM in water with 0.5% Triton X-100 (Sigma). The solution was vortexed for 30 min and then sonicated for 30 min. Assay conditions were as follows: 50 μl total volume per reaction, consisting of 20 μM SM, reaction buffer (100 mM Tris-HCl pH 7.5, 80 mM MgCl2, 0.1% Triton X-100); 10 μl cell lysate containing recombinant human nSMase2 (0.5–1 μg protein/assay) and 5 μl of compound in reaction buffer containing 10% DMSO. After 1 h incubation at 37°C the reaction was terminated by the addition of 30 μl of water and 175 μl of chloroform/methanol (2:1, v:v), followed by vigorous vortexing. Tubes were centrifuged for 5 min at 10,000 xg at room temperature to separate the organic bottom phase containing labeled SM and the aqueous upper phase containing ^14C-labeled-phosphorylcholine. An aliquot (50 μl) of the upper phase was transferred to a vial with 10 ml of scintillant and counted for 2 min on a Beckman LS-6000IC scintillation counter. Enzyme activity was directly proportional to the disintegrations per min (dpm) resulting from the generation of ^14C-phosphorylcholine.

On to `COc1cc(O)c(C(=O)O)c(-c2cc(O)c(O)cc2C)c1` [Altenusin, reference compound], for which, in data set [1], the IC50 was 28 µM and the MOI entry was “Non- competitive”. Moreover, the “modulation of enzymatic activity (Fig 3C raw data)” value in data set [2] (100 µM) is 75.4 RFU and 73.8 RFU and 72.1 RFU and 74.7 RFU. Further, the “inhibition of human nSMase2 activity” value in data set [2] is recorded as “possible to inhibit enzyme activity; also recorded: inhibition”.

Regarding `CCCCCCCCCCC=NNC(=N)N` [C11AG], the concentration for half-maximal inhibition (IC50) in [3] is 8 µM.

In the case of `NC(=O)[C@H]1CCCCc2c1[nH]c1ccc(Cl)cc21` [CHIC-35, reference compound], the “neuron survival, Mean (normalized to control untreated cells)” value was 71.88 in data set [4] (100 ng/ml TNFα, 200 nM compound) and 62.07 in data set [4] (No TNFα, 200 nM compound). Further, the IC50 in data set [5] is […]; in [6], 19.6 µM; in [2] (fluorescence nSMase2 assay (S2 Fig)) it was 70 µM. The “block of human nSMase2 activity” value in data set [2] is on record as “not possible to block”.

As to `O=C(/C=C\c1ccc(/C=C\C(=O)Nc2ccc(C3=NCCN3)cc2)cc1)Nc1ccc(C2=NCCN2)cc1` [GW4869, reference compound], the “aqueous solubility” value in [7] was “low”. In data set [1], the IC50 is 1 µM and the MOI entry was “Non- competitive”. Further, the solubility in [8] was 200 µg/mL (≈ 396 µM). Moreover, in data set [2] (150 µM (nominal)), the “modulation of enzymatic activity (Fig 3C raw data)” value was 59.6 RFU and 72.8 RFU and 57.5 RFU and 70.4 RFU. Also, in data set [2], the “inhibition of human nSMase2 activity” value is listed as “possible to inhibit enzyme activity; also recorded: inhibition”.

For the compound `CC1CC2C(C=CC3CC(O)CC4CC(=O)C(=CC32)C(=O)O4)C1=O` (stereo not drawn) [Macquarimicin A], in data set [1], the IC50 was 145 µM and the MOI result is on record as “Non- competitive”.

For `CCCC[C@@H](C)/C=C(C)/C=C(\C)C(=O)NC1=C[C@@](O)(/C=C/C=C/C=C/C(=O)NC2=C(O)CCC2=O)[C@@H]2O[C@@H]2C1=O` [Manumycin A, reference compound], the MOI entry in data set [9] is recorded as “Irreversible”. Besides, in data set [2], the “inhibition of human nSMase2 activity” value is “inhibition”.

As to `CC[C@@H](C)/C=C(\C)C[C@@H](C)C[C@@H](C)/C=C/C=C/C=C/C(=O)N[C@H](CO)C[C@@]1(O)C(=O)C=C[C@@H]2O[C@@H]21` [Scyphostatin], the MOI result in [1] is “Competitive”.

In the case of `CCCCn1c(-c2ccccc2)c(Cc2c(O)ccc3ccccc23)c(=O)[nH]c1=S` [compound 4], the “potency and specificity against SIRT 2 vs cambinol” value in data set [6] was “significantly improved”. In data set [10] (SAR), the “human nSMase2 inhibitory activity of analog vs cambinol” value was “loss of activity; also recorded: eliminated”. Besides, in [10] ([14C]-SM direct activity assay, human recombinant enzyme), the IC50 is greater than 100 µM.

Take `CC(NC(=O)c1ccccc1/N=C/c1c(O)ccc2ccccc12)c1ccccc1` (stereo not drawn) [sirtinol, reference compound]: the “neuron survival, Mean (normalized to control untreated cells)” value in data set [4] (100 ng/ml TNFα, 40 µM compound) is 60.73; in data set [4] (No TNFα, 40 µM compound), 53.3. The results for the IC50 in data set [5] and in data set [6] were […] and […], respectively. In [2], the “block of human nSMase2 activity” value was “not possible to block”.
